{
  "source": "patent US20160038532A1",
  "about": "“Treatment of Multiple Sclerosis With Combination of Laquinimod and Glatiramer Acetate” (TEVA PHARMACEUTICAL INDUSTRIES, LTD., priority 2011, published 2016)",
  "key": {"[1]": {"conditions": "in vivo; cited from earlier work"}, "MSCH-induced EAE": {"test_system": "MSCH-induced EAE", "experiment": "MSCH-induced EAE in CSJL mice (Example 2.7)", "assay_type": "in vivo, CSJL/F1 mice"}, "Multiple Sclerosis": {"test_system": "Multiple Sclerosis", "conditions": "two phase III trials; cited from earlier work"}, "multiple sclerosis (MS)": {"test_system": "multiple sclerosis (MS)", "conditions": "daily subcutaneous injections, 20 mg/injection; cited from earlier work"}, "[2]": {"conditions": "LAQ 0.01 mg/kg/day oral, alone or + GA Blocking 0.5 mg/kg"}, "[3]": {"conditions": "LAQ 0.1 mg/kg/day oral, alone or + GA Blocking 0.5 mg/kg"}, "[4]": {"conditions": "GA blocking 0.5 mg/kg (sub-optimal dose), with encephalitogen"}},
  "note": "Values joined by “and” are separate entries in the source; they are usually repeats but may differ in a detail not shown here. Identical values can stand only once.",
  "data": [
    {"molecule": "CCN(C(=O)c1c(O)c2c(Cl)cccc2n(C)c1=O)c1ccccc1", "note": "[laquinimod]", "values": [
      {"measurement": "oral bioavailability", "setting": "[1]", "result": "high oral bioavailability"},
      {"measurement": "% Inhibition 1 (incidence)", "setting": "MSCH-induced EAE; [2]", "result": 0.0, "unit": "%"},
      {"measurement": "GMS % Inhibition 3", "setting": "MSCH-induced EAE; [2]", "result": 16.7, "unit": "%"},
      {"measurement": "GMS value", "setting": "MSCH-induced EAE; [2]", "result": "3.5 ± 0.9"},
      {"measurement": "Incidence", "setting": "MSCH-induced EAE; [2]", "result": "10/10"},
      {"measurement": "MMS % Inhibition 2", "setting": "MSCH-induced EAE; [2]", "result": 4.0, "unit": "%"},
      {"measurement": "MMS value", "setting": "MSCH-induced EAE; [2]", "result": "4.8 ± 0.4"},
      {"measurement": "Mean Duration", "setting": "MSCH-induced EAE; [2]", "result": "11.5 ± 0.8", "unit": "days"},
      {"measurement": "Mean Onset", "setting": "MSCH-induced EAE; [2]", "result": "12.5 ± 0.8", "unit": "days"},
      {"measurement": "% Inhibition 1 (incidence)", "setting": "MSCH-induced EAE; [3]", "result": 10.0, "unit": "%"},
      {"measurement": "GMS % Inhibition 3", "setting": "MSCH-induced EAE; [3]", "result": 31.0, "unit": "%"},
      {"measurement": "GMS value", "setting": "MSCH-induced EAE; [3]", "result": "2.9 ± 1.5"},
      {"measurement": "Incidence", "setting": "MSCH-induced EAE; [3]", "result": "9/10"},
      {"measurement": "MMS % Inhibition 2", "setting": "MSCH-induced EAE; [3]", "result": 18.0, "unit": "%"},
      {"measurement": "MMS value", "setting": "MSCH-induced EAE; [3]", "result": "4.2 ± 1.7"},
      {"measurement": "Mean Duration", "setting": "MSCH-induced EAE; [3]", "result": "9.8 ± 4.0", "unit": "days"},
      {"measurement": "Mean Onset", "setting": "MSCH-induced EAE; [3]", "result": "14.2 ± 4.0", "unit": "days"},
      {"measurement": "% Inhibition 1 (incidence)", "setting": "MSCH-induced EAE; LAQ 0.3 mg/kg/day oral", "result": 0.0, "unit": "%"},
      {"measurement": "GMS % Inhibition 3", "setting": "MSCH-induced EAE; LAQ 0.3 mg/kg/day oral", "result": 28.6, "unit": "%"},
      {"measurement": "GMS value", "setting": "MSCH-induced EAE; LAQ 0.3 mg/kg/day oral", "result": "3.0 ± 1.2"},
      {"measurement": "Incidence", "setting": "MSCH-induced EAE; LAQ 0.3 mg/kg/day oral", "result": "10/10"},
      {"measurement": "MMS % Inhibition 2", "setting": "MSCH-induced EAE; LAQ 0.3 mg/kg/day oral", "result": 16.0, "unit": "%"},
      {"measurement": "MMS value", "setting": "MSCH-induced EAE; LAQ 0.3 mg/kg/day oral", "result": "4.2 ± 1.0"},
      {"measurement": "Mean Duration", "setting": "MSCH-induced EAE; LAQ 0.3 mg/kg/day oral", "result": "10.8 ± 2.0", "unit": "days"},
      {"measurement": "Mean Onset", "setting": "MSCH-induced EAE; LAQ 0.3 mg/kg/day oral", "result": "13.2 ± 2.0", "unit": "days"},
      {"measurement": "Mortality", "setting": "MSCH-induced EAE; LAQ 0.3 mg/kg/day oral", "result": "6/10"},
      {"measurement": "% Inhibition 1 (incidence)", "setting": "MSCH-induced EAE; LAQ 1.0 mg/kg/day oral", "result": 0.0, "unit": "%"},
      {"measurement": "GMS % Inhibition 3", "setting": "MSCH-induced EAE; LAQ 1.0 mg/kg/day oral", "result": 38.1, "unit": "%"},
      {"measurement": "GMS value", "setting": "MSCH-induced EAE; LAQ 1.0 mg/kg/day oral", "result": "2.6 ± 1.1"},
      {"measurement": "Incidence", "setting": "MSCH-induced EAE; LAQ 1.0 mg/kg/day oral", "result": "10/10"},
      {"measurement": "MMS % Inhibition 2", "setting": "MSCH-induced EAE; LAQ 1.0 mg/kg/day oral", "result": 28.0, "unit": "%"},
      {"measurement": "MMS value", "setting": "MSCH-induced EAE; LAQ 1.0 mg/kg/day oral", "result": "3.6 ± 0.0"},
      {"measurement": "Mean Duration", "setting": "MSCH-induced EAE; LAQ 1.0 mg/kg/day oral", "result": "10.7 ± 1.9", "unit": "days"},
      {"measurement": "Mean Onset", "setting": "MSCH-induced EAE; LAQ 1.0 mg/kg/day oral", "result": "13.0 ± 2.0", "unit": "days"},
      {"measurement": "Mortality", "setting": "MSCH-induced EAE; LAQ 1.0 mg/kg/day oral", "result": "3/10"},
      {"measurement": "Mortality", "setting": "MSCH-induced EAE; mouse, in vivo", "result": "7/10 and 8/10"},
      {"measurement": "safety and tolerability profile", "setting": "Multiple Sclerosis", "result": "favorable safety and tolerability profile"}
    ]},
    {"molecule": "L-glutamic acid polymer with L-alanine, L-lysine and L-tyrosine, acetate (salt) [GA]", "values": [
      {"measurement": "effect on relapse rates, progression of disability, new MRI lesions", "setting": "multiple sclerosis (MS)", "result": "reduce relapse rates"},
      {"measurement": "% Inhibition 1 (incidence)", "setting": "MSCH-induced EAE; [4]", "result": 30.0, "unit": "%"},
      {"measurement": "GMS % Inhibition 3", "setting": "MSCH-induced EAE; [4]", "result": 61.9, "unit": "%"},
      {"measurement": "GMS value", "setting": "MSCH-induced EAE; [4]", "result": "1.6 ± 1.5"},
      {"measurement": "Incidence", "setting": "MSCH-induced EAE; [4]", "result": "7/10"},
      {"measurement": "MMS % Inhibition 2", "setting": "MSCH-induced EAE; [4]", "result": 42.0, "unit": "%"},
      {"measurement": "MMS value", "setting": "MSCH-induced EAE; [4]", "result": "2.9 ± 2.1"},
      {"measurement": "Mean Duration", "setting": "MSCH-induced EAE; [4]", "result": "5.8 ± 4.5", "unit": "days"},
      {"measurement": "Mean Onset", "setting": "MSCH-induced EAE; [4]", "result": "17.0 ± 4.9", "unit": "days"}
    ]}
  ]
}
